Laboratory results from US20120029187A1, “HALOALKYLSULFONANILIDE DERIVATIVE” (Nissan Chemical Industries, Ltd., priority 2009, published 2012).

Assays:
Type in all cases: in vivo
[1] = test system: transplanted rice; experiment: Test Example 1: preemergence treatment under submerged conditions, effect on crop; conditions: dose 2.52 g/a
Outline: (§1)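 Weed seeds and 2.5-leaf rice seedlings shared each flooded cup of alluvial soil. Dosing, expressed as g per are, was by pouring water-diluted emulsifiable concentrate onto the surface on sowing day. Mortality was graded 0 to 5 after three weeks' growth.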

[2] = test system: giant foxtail; experiment: Test Example 4: herbicidal effect in foliage treatment; conditions: dose 3.2 g/a, three weeks after application
Outline: (§2)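 Doses are given in grams per are of applied compound, sprayed as water-diluted emulsifiable concentrate onto foliage of 14-day-old plants grown at 25 to 30° C. Herbicidal activity was assessed visually on a rating scale after three weeks.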

[3] = test system: water foxtail; experiment: as above; conditions: dose 3.2 g/a, three weeks after application
Outline: as §2

[4] = test system: velvetleaf; experiment: as above; conditions: dose 3.2 g/a, three weeks after application
Outline: as §2

[5] = test system: common lambsquater; experiment: as above; conditions: dose 3.2 g/a, three weeks after application
Outline: as §2

[6] = test system: common ragweed; experiment: as above; conditions: dose 3.2 g/a, three weeks after application
Outline: as §2

[7] = test system: large crabgrass; experiment: as above; conditions: dose 3.2 g/a, three weeks after application
Outline: as §2

[8] = test system: common chickweed; experiment: as above; conditions: dose 3.2 g/a, three weeks after application
Outline: as §2

[9] = test system: barnyardgrass; experiment: as above; conditions: dose 3.2 g/a, three weeks after application
Outline: as §2

[10] = test system: wild oat; experiment: as above; conditions: dose 3.2 g/a, three weeks after application
Outline: as §2

[11] = test system: beadstraw; experiment: as above; conditions: dose 3.2 g/a, three weeks after application
Outline: as §2

[12] = test system: Italian ryegrass; experiment: as above; conditions: dose 3.2 g/a, three weeks after application
Outline: as §2

[13] = test system: redroot pigweed; experiment: as above; conditions: dose 3.2 g/a, three weeks after application
Outline: as §2

[14] = test system: bulrush; experiment: Test Example 1: herbicidal effects in preemergence treatment under submerged conditions; conditions: dose 2.52 g/a
Outline: as §1

[15] = test system: barnyardgrass; experiment: as above; conditions: dose 2.52 g/a
Outline: as §1

[16] = test system: ducksalad; experiment: as above; conditions: dose 2.52 g/a
Outline: as §1

[17] = test system: bulrush; experiment: Test Example 2: herbicidal effects during the vegetation period under submerged conditions; conditions: treatment during the vegetation period under submerged conditions; dose 2.52 g/a
Outline: (§3)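 Barnyardgrass, bulrush and ducksalad were co-sown in alluvial soil flooded to 4 cm and grown in a greenhouse at 25 to 30° C. At the 1- or 2-leaf stage, water-diluted emulsifiable concentrates went onto the water surface at set doses (g/a). Herbicidal effect was scored three weeks later on a graded scale.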

[18] = test system: barnyardgrass; experiment: as above; conditions: treatment during the vegetation period under submerged conditions; dose 2.52 g/a
Outline: as §3

[19] = test system: ducksalad; experiment: as above; conditions: treatment during the vegetation period under submerged conditions; dose 2.52 g/a
Outline: as §3

[20] = test system: posumbu knotweed; experiment: Test Example 3: herbicidal effects in soil treatment; conditions: dose 3.2 g/a
Outline: (§4)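 Seeds were sown in sterilized diluvial soil and covered with about 1.5 cm of soil. Compounds, formulated as emulsifiable concentrates and diluted with water, were sprayed evenly over the soil surface at set doses in g/a. Herbicidal effect was scored on a rating scale three weeks later.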

[21] = test system: giant foxtail; experiment: as above; conditions: dose 3.2 g/a
Outline: as §4

[22] = test system: water foxtail; experiment: as above; conditions: dose 3.2 g/a
Outline: as §4

[23] = test system: velvetleaf; experiment: as above; conditions: dose 3.2 g/a
Outline: as §4

[24] = test system: common lambsquater; experiment: as above; conditions: dose 3.2 g/a
Outline: as §4

[25] = test system: common ragweed; experiment: as above; conditions: dose 3.2 g/a
Outline: as §4

[26] = test system: large crabgrass; experiment: as above; conditions: dose 3.2 g/a
Outline: as §4

[27] = test system: common chickweed; experiment: as above; conditions: dose 3.2 g/a
Outline: as §4

[28] = test system: barnyardgrass; experiment: as above; conditions: dose 3.2 g/a
Outline: as §4

[29] = test system: wild oat; experiment: as above; conditions: dose 3.2 g/a
Outline: as §4

[30] = test system: beadstraw; experiment: as above; conditions: dose 3.2 g/a
Outline: as §4

[31] = test system: Italian ryegrass; experiment: as above; conditions: dose 3.2 g/a
Outline: as §4

[32] = test system: redroot pigweed; experiment: as above; conditions: dose 3.2 g/a
Outline: as §4

[33] = test system: posumbu knotweed; experiment: Test Example 4: herbicidal effect in foliage treatment; conditions: dose 3.2 g/a, three weeks after application
Outline: as §2

SMILES	a: transplanted rice, effect on crop (evaluation scale 0-5) [1]	E: giant foxtail, herbicidal effect [2]	G: water foxtail, herbicidal effect [3]	I: velvetleaf, herbicidal effect [4]	L: common lambsquater, herbicidal effect [5]	J: common ragweed, herbicidal effect [6]	D: large crabgrass, herbicidal effect [7]	N: common chickweed, herbicidal effect [8]	A: barnyardgrass, herbicidal effect [9]	F: wild oat, herbicidal effect [10]	O: beadstraw, herbicidal effect [11]	H: Italian ryegrass, herbicidal effect [12]	K: redroot pigweed, herbicidal effect [13]	B: bulrush, herbicidal effect (evaluation scale 0-5) [14]	A: barnyardgrass, herbicidal effect (evaluation scale 0-5) [15]	C: ducksalad, herbicidal effect (evaluation scale 0-5) [16]	B: bulrush, herbicidal effect (evaluation scale 0-5) [17]	A: barnyardgrass, herbicidal effect (evaluation scale 0-5) [18]	C: ducksalad, herbicidal effect (evaluation scale 0-5) [19]	M: posumbu knotweed, herbicidal effect (evaluation scale 0-5) [20]	also measured
O=C1CC(C(F)(F)F)OCN1Cc1ccccc1NS(=O)(=O)C(F)(F)F (stereo not shown) [II-14]	0 (mortality of less than 5% (almost ineffective))	4 (mortality of at least 70% and less than 90%)	5 (mortality of 90% or above (nearly complete death))	4 (mortality of at least 70% and less than 90%)	4 (mortality of at least 70% and less than 90%)	3 (mortality of at least 40% and less than 70%)	4 (mortality of at least 70% and less than 90%)	3 (mortality of at least 40% and less than 70%)	5 (mortality of 90% or above (nearly complete death))	0 (mortality of less than 5% (almost ineffective))	3 (mortality of at least 40% and less than 70%)	3 (mortality of at least 40% and less than 70%)	0 (mortality of less than 5% (almost ineffective))	5 (mortality of 90% or above (nearly complete death))	5 (mortality of 90% or above (nearly complete death))	5 (mortality of 90% or above (nearly complete death))	5 (mortality of 90% or above (nearly complete death))	5 (mortality of 90% or above (nearly complete death))	5 (mortality of 90% or above (nearly complete death))	5 (mortality of 90% or above (nearly complete death))	E: giant foxtail, herbicidal effect (evaluation scale 0-5) [21]: 4 (mortality of at least 70% and less than 90%); G: water foxtail, herbicidal effect (evaluation scale 0-5) [22]: 5 (mortality of 90% or above (nearly complete death)); I: velvetleaf, herbicidal effect (evaluation scale 0-5) [23]: 5 (mortality of 90% or above (nearly complete death)); L: common lambsquater, herbicidal effect (evaluation scale 0-5) [24]: 4 (mortality of at least 70% and less than 90%); J: common ragweed, herbicidal effect (evaluation scale 0-5) [25]: 4 (mortality of at least 70% and less than 90%); D: large crabgrass, herbicidal effect (evaluation scale 0-5) [26]: 5 (mortality of 90% or above (nearly complete death)); N: common chickweed, herbicidal effect (evaluation scale 0-5) [27]: 5 (mortality of 90% or above (nearly complete death)); A: barnyardgrass, herbicidal effect (evaluation scale 0-5) [28]: 5 (mortality of 90% or above (nearly complete death)); F: wild oat, herbicidal effect (evaluation scale 0-5) [29]: 0 (mortality of less than 5% (almost ineffective)); O: beadstraw, herbicidal effect (evaluation scale 0-5) [30]: 5 (mortality of 90% or above (nearly complete death)); H: Italian ryegrass, herbicidal effect (evaluation scale 0-5) [31]: 3 (mortality of at least 40% and less than 70%); K: redroot pigweed, herbicidal effect (evaluation scale 0-5) [32]: 4 (mortality of at least 70% and less than 90%)
CC(C)COC(=O)N(c1ccccc1CN1COC(C(F)(F)F)CC1=O)S(=O)(=O)C(F)(F)F (stereo not shown) [II-16]	0 (mortality of less than 5% (almost ineffective))	0 (mortality of less than 5% (almost ineffective))	5 (mortality of 90% or above (nearly complete death))	0 (mortality of less than 5% (almost ineffective))	3 (mortality of at least 40% and less than 70%)	2 (mortality of at least 20% and less than 40%)	0 (mortality of less than 5% (almost ineffective))	2 (mortality of at least 20% and less than 40%)	0 (mortality of less than 5% (almost ineffective))	0 (mortality of less than 5% (almost ineffective))	0 (mortality of less than 5% (almost ineffective))	0 (mortality of less than 5% (almost ineffective))	0 (mortality of less than 5% (almost ineffective))	5 (mortality of 90% or above (nearly complete death))	5 (mortality of 90% or above (nearly complete death))	5 (mortality of 90% or above (nearly complete death))	5 (mortality of 90% or above (nearly complete death))	1 (mortality of at least 5% and less than 20%)	4 (mortality of at least 70% and less than 90%)	0 (mortality of less than 5% (almost ineffective))	M: posumbu knotweed, herbicidal effect [33]: 0 (mortality of less than 5% (almost ineffective)); E: giant foxtail, herbicidal effect (evaluation scale 0-5) [21]: 0 (mortality of less than 5% (almost ineffective)); G: water foxtail, herbicidal effect (evaluation scale 0-5) [22]: 5 (mortality of 90% or above (nearly complete death)); I: velvetleaf, herbicidal effect (evaluation scale 0-5) [23]: 0 (mortality of less than 5% (almost ineffective)); L: common lambsquater, herbicidal effect (evaluation scale 0-5) [24]: 1 (mortality of at least 5% and less than 20%); J: common ragweed, herbicidal effect (evaluation scale 0-5) [25]: 3 (mortality of at least 40% and less than 70%); D: large crabgrass, herbicidal effect (evaluation scale 0-5) [26]: 0 (mortality of less than 5% (almost ineffective)); A: barnyardgrass, herbicidal effect (evaluation scale 0-5) [28]: 0 (mortality of less than 5% (almost ineffective)); F: wild oat, herbicidal effect (evaluation scale 0-5) [29]: 0 (mortality of less than 5% (almost ineffective)); O: beadstraw, herbicidal effect (evaluation scale 0-5) [30]: 0 (mortality of less than 5% (almost ineffective)); H: Italian ryegrass, herbicidal effect (evaluation scale 0-5) [31]: 0 (mortality of less than 5% (almost ineffective)); K: redroot pigweed, herbicidal effect (evaluation scale 0-5) [32]: 0 (mortality of less than 5% (almost ineffective))
